ChEMBL document CHEMBL4616655, “Kalparinol, a Salvialane (Isodaucane) Sesquiterpenoid Derived from Native Australian Dysphania Species That Suggests a Putative Biogenetic Link to Zerumbone” (J Nat Prod, 2020)
One block for each molecule: values may come before it. Activity calls are given as the source filed them. The calls are words filed in the database; no cut-off is given here.

Experiments:
[1] = Stability of compound in DMSO; type: physicochemical
NFF = experiment: Cytotoxicity against human NFF cells assessed as reduction in cell viability after 6 days by SRB assay; type: cell-based; conditions: 144 h
SCC-25 = experiment: Cytotoxicity against human SCC25 cells assessed as reduction in cell viability after 6 days by SRB assay; type: functional, cell-based
Pichia kudriavzevii = experiment: Antifungal activity against Pichia kudriavzevii ATCC 6258 assessed as reduction in microbial growth up to 200 uM incubated for 24 to 48 hrs; type: functional, organism-based
SCC-9 = experiment: Cytotoxicity against human SCC9 cells assessed as reduction in cell viability after 6 days by SRB assay; type: functional, cell-based
FaDu = experiment: Cytotoxicity against human FADU cells assessed as reduction in cell viability after 6 days by SRB assay; type: functional, cell-based
Candida albicans = experiment: Antifungal activity against Candida albicans ATCC 90028 assessed as reduction in microbial growth up to 200 uM incubated for 24 to 48 hrs; type: functional, organism-based
SCC-15 = experiment: Cytotoxicity against human SCC15 cells assessed as reduction in cell viability after 6 days by SRB assay; type: functional, cell-based
MCF7 = experiment: Cytotoxicity against human MCF7 cells assessed as reduction in cell viability after 6 days by SRB assay; type: functional, cell-based
[Candida] auris [2] = Antifungal activity against Candida auris CBS 12373 assessed as reduction in microbial growth up to 200 uM incubated for 24 to 48 hrs; type: functional, organism-based; conditions: Candidozyma auris
CAL-27 = experiment: Cytotoxicity against human CAL27 cells assessed as reduction in cell viability after 6 days by SRB assay; type: functional, cell-based
[Candida] auris [3] = Antifungal activity against Candida auris CBS 10913 assessed as reduction in microbial growth up to 200 uM incubated for 24 to 48 hrs; type: functional, organism-based; conditions: Candidozyma auris
Nakaseomyces glabratus = experiment: Antifungal activity against Candida glabrata ATCC 90030 assessed as reduction in microbial growth up to 200 uM incubated for 24 to 48 hrs; type: functional, organism-based
MM96L = experiment: Cytotoxicity against human MM96L cells assessed as reduction in cell viability after 6 days by SRB assay; type: functional, cell-based

- Stability [1]: Unstable
SMILES: C[C@@H]1CCC[C@@]2(C)[C@H](C1=O)[C@@H](C(C)(C)O)C[C@@H]2O

SMILES: C/C1=C/CC[C@@]2(C)O[C@@H]2CC(C)(C)/C=C/C1=O
- Activity (NFF): Non-Toxic
- Activity (SCC-25): inactive
- Activity (Pichia kudriavzevii): inactive
- Activity (SCC-9): inactive
- Activity (FaDu): inactive
- Activity (Candida albicans): inactive
- Activity (SCC-15): inactive
- Activity (MCF7): inactive
- Activity ([Candida] auris [2]): inactive
- Activity (CAL-27): inactive
- Activity ([Candida] auris [3]): inactive
- Activity (Nakaseomyces glabratus): inactive
- Activity (MM96L): inactive

SMILES: C/C1=C\CC[C@@]2(C)O[C@@H]2CC(C)(C)/C=C/C1=O [ZERUMBONE EPOXIDE]
- Activity (NFF): Non-Toxic
- Activity (SCC-25): inactive
- Activity (SCC-9): inactive
- Activity (FaDu): inactive
- Activity (SCC-15): inactive
- Activity (MCF7): inactive
- Activity (CAL-27): inactive
- Activity (MM96L): inactive
